Test results published in US10543212B2, “Substituted amines for treating cardiac diseases” (Cardurion Pharmaceuticals, LLC, priority 2017, dated 2020).

Each compound was assayed against T1, Full-length, GST-tagged, human CaMKIIδ (Homo sapiens, UniProt Q13557) (assay: CaMKIIδ binding assay (TR-FRET with BODIPY-labeled probe ligand)). Conditions: Table 2; activity class for CaMKIIδ.
T1 construct: Full-Length, Glutathione-S-Transferase(GST)-Tagged, Human CaMKIIδ was purchased from Carna Biosciences; purchased Carna Biosciences 02-111
T1 sequence (Q13557 1-478 isoform Q13557-12): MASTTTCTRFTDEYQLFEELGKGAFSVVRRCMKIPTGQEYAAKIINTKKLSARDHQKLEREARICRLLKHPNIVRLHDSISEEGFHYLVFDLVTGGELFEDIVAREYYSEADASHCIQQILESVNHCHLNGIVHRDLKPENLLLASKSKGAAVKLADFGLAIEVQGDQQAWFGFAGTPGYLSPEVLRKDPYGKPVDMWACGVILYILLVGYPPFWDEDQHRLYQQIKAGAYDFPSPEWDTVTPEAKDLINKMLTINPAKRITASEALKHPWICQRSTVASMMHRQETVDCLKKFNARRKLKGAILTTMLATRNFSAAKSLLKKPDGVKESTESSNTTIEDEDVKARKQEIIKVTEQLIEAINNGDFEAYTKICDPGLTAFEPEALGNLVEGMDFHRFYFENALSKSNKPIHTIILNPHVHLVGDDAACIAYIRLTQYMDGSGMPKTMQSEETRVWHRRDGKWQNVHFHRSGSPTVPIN
Summary of the method: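 TR-FRET probe-displacement binding: 0.5 nM GST-CaMKIIδ with 10 μg/mL calmodulin, 1 mM CaCl2, 0.21 nM Tb-anti-GST Ab and 300 nM BODIPY probe in HEPES pH 7.6 buffer. Eight-point 4-fold dilutions, 1 hr at room temperature. IC50 from logistic fit; 100% inhibition defined by 3 μM parent compound.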

Row | Compound | IC50
1 | COc1cc(N2C[C@@H]3C[C@H]2CN3C2CCOCC2)ccc1Nc1ncc(-c2ccc(Cl)c(O[C@@H](C)Cn3cnnn3)c2)cn1 [Example 653, 5-(3-(((S)-1-(1H-tetrazol-1-yl)propan-2-yl)oxy)-4-chlorophenyl)-N-(2-methoxy-4-((1S,4S)-5-(tetrahydro-2H-pyran-4-yl)-2,5-diazabicyclo[2.2.1]heptan-2-yl)phenyl)pyrimidin-2-amine] | 10 to 100 nM
2 | COc1cc(N2CCN(C3CCOCC3)C[C@@H]2C)ccc1Nc1ncc(-c2ccc(Cl)c(O[C@@H](C)Cn3cnnn3)c2)cn1 [Example 654, 5-(3-(((S)-1-(1H-tetrazol-1-yl)propan-2-yl)oxy)-4-chlorophenyl)-N-(2-methoxy-4-((S)-2-methyl-4-(tetrahydro-2H-pyran-4-yl)piperazin-1-yl)phenyl)pyrimidin-2-amine] | < 10 nM
3 | COCCn1nc(C)cc1Nc1ncc(-c2ccc(Cl)c(O[C@@H](C)Cn3cnnn3)c2)cn1 [Example 655, (S)-5-(3-((1-(1H-tetrazol-1-yl)propan-2-yl)oxy)-4-chlorophenyl)-N-(1-(2-methoxyethyl)-3-methyl-1H-pyrazol-5-yl)pyrimidin-2-amine] | ≥ 100 nM
4 | COc1ccc(N2CC(CN3CCOCC3)C2)cc1Nc1ncc(-c2ccc(Cl)c(O[C@@H](C)Cn3cnnn3)c2)cn1 [Example 656, (S)-5-(3-((1-(1H-tetrazol-1-yl)propan-2-yl)oxy)-4-chlorophenyl)-N-(2-methoxy-5-(3-(morpholinomethyl)azetidin-1-yl)phenyl)pyrimidin-2-amine] | < 10 nM
5 | COc1nn(C2CCNCC2)cc1Nc1ncc(-c2ccc(Cl)c(O[C@@H](C)Cn3cnnn3)c2)cn1 [Example 657, (S)-5-(3-((1-(1H-tetrazol-1-yl)propan-2-yl)oxy)-4-chlorophenyl)-N-(3-methoxy-1-(piperidin-4-yl)-1H-pyrazol-4-yl)pyrimidin-2-amine] | < 10 nM
6 | C[C@@H](Cn1cnnn1)Oc1cc(-c2cnc(Nc3cn(Cc4nc5ccccc5[nH]4)nc3C(F)(F)F)nc2)ccc1Cl [Example 658, (S)-N-(1-((1H-benzo[d]imidazol-2-yl)methyl)-3-(trifluoromethyl)-1H-pyrazol-4-yl)-5-(3-((1-(1H-tetrazol-1-yl)propan-2-yl)oxy)-4-chlorophenyl)pyrimidin-2-amine] | 10 to 100 nM
7 | Cc1cc(Nc2ncc(-c3ccc(Cl)c(O[C@@H](C)Cn4cnnn4)c3)cn2)n(CC(F)(F)F)n1 [Example 659, (S)-5-(3-((1-(1H-tetrazol-1-yl)propan-2-yl)oxy)-4-chlorophenyl)-N-(3-methyl-1-(2,2,2-trifluoroethyl)-1H-pyrazol-5-yl)pyrimidin-2-amine] | 10 to 100 nM
8 | Cc1cc(Nc2ncc(-c3ccc(Cl)c(O[C@@H](C)Cn4cnnn4)c3)cn2)n(-c2ccccn2)n1 [Example 660, (S)-5-(3-((1-(1H-tetrazol-1-yl)propan-2-yl)oxy)-4-chlorophenyl)-N-(3-methyl-1-(pyridin-2-yl)-1H-pyrazol-5-yl)pyrimidin-2-amine] | ≥ 100 nM
9 | COc1nn(C2CCN(C3COC3)CC2)cc1Nc1ncc(-c2ccc(Cl)c(O[C@@H](C)Cn3cnnn3)c2)cn1 [Example 661, (S)-5-(3-((1-(1H-tetrazol-1-yl)propan-2-yl)oxy)-4-chlorophenyl)-N-(3-methoxy-1-(1-(oxetan-3-yl)piperidin-4-yl)-1H-pyrazol-4-yl)pyrimidin-2-amine] | < 10 nM
10 | COc1nn(C2CCN(C3CCOCC3)CC2)cc1Nc1ncc(-c2ccc(Cl)c(O[C@@H](C)Cn3cnnn3)c2)cn1 [Example 662, (S)-5-(3-((1-(1H-tetrazol-1-yl)propan-2-yl)oxy)-4-chlorophenyl)-N-(3-methoxy-1-(1-(tetrahydro-2H-pyran-4-yl)piperidin-4-yl)-1H-pyrazol-4-yl)pyrimidin-2-amine] | < 10 nM
11 | C[C@@H](Cn1cnnn1)Oc1cc(-c2cnc(Nc3cn(C4CCSCC4)nc3C(F)(F)F)nc2)ccc1Cl [Example 663, (S)-5-(3-((1-(1H-tetrazol-1-yl)propan-2-yl)oxy)-4-chlorophenyl)-N-(1-(tetrahydro-2H-thiopyran-4-yl)-3-(trifluoromethyl)-1H-pyrazol-4-yl)pyrimidin-2-amine] | 10 to 100 nM
